In patent publication US20080207705A1, “Heteroaryl-Imidazole Derivatives as Cannabinoid CB1 Receptor Antagonists” (Green Cross Corporation, priority 2007, published 2008):

Target: T1, rat CB-1 receptor (Rattus norvegicus, UniProt P20272)
T1 construct: The tissue obtained from the brain of SD rats was homogenized; from tissue; host or cells: brain of SD rats (membrane pellet of homogenate)
Experiment: rat CB-1 receptor binding protocol with [3H]CP-55940
Details: [3H]CP-55940, brain tissue of SD rats, 30 °C for 60 min; read-out: IC50

T1 sequence (P20272 whole entry): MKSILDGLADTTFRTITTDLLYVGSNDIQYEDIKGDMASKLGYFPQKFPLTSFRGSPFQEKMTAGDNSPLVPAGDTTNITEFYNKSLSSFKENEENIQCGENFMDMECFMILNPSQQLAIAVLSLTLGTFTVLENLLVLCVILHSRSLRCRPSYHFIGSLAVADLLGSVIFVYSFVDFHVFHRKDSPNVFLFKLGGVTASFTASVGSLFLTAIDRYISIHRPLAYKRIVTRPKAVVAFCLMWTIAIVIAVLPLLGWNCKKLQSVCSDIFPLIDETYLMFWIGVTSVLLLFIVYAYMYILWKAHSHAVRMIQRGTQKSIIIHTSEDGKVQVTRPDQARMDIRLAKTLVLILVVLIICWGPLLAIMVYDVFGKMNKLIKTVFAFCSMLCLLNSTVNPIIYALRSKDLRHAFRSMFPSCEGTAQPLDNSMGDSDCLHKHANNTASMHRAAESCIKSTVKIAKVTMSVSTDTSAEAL

IC50 [nM] | Compound
46.4 | Cc1c(-c2ncc(CC(C)C)s2)nc(-c2ccc(Cl)cc2Cl)n1-c1ccc(Cl)cc1 [Example 197, 2-(1-(4-Chlorophenyl)-2-(2,4-dichlorophenyl)-5-methyl-1H-imidazol-4-yl)-5-isobutylthiazole]
16 | Cc1c(-c2ncc(C(C)(C)C)s2)nc(-c2ccc(Cl)cc2Cl)n1-c1ccc(Br)cc1 [Example 200, 2-(1-(4-Bromophenyl)-2-(2,4-dichlorophenyl)-5-methyl-1H-imidazol-4-yl)-5-tert-butylthiazole]
10.5 | CCc1c(-c2ncc(C(C)(C)C)s2)nc(-c2ccc(Cl)cc2Cl)n1-c1ccc(Br)cc1 [Example 201, 2-(1-(4-Bromophenyl)-2-(2,4-dichlorophenyl)-5-ethyl-1H-imidazol-4-yl)-5-tert-butylthiazole]
90.2 | CCc1sc(-c2nc(-c3ccc(Cl)cc3Cl)n(-c3ccc(Cl)cc3)c2C)nc1C [Example 202, 2-(1-(4-Chlorophenyl)-2-(2,4-dichlorophenyl)-5-methyl-1H-imidazol-4-yl)-5-ethyl-4-methylthiazole]
